From US11633485B2, “Cleavable esters for nanocarrier-based cancer therapy” (priority 2017, dated 2023) come the findings set out here.

Series [1] has as its system MYCN-amplified NB cells (IMR-32, ATCC CCL-127). Briefly: Antiproliferative effect of co-drug loaded nanoparticles on neuroblastoma cells. The following applies: IMR-32 cells, doses equivalent to 5-20 ng SN-22 per well, 96-well plates. The format is cell-based. The protocol: Blank NP were used as a negative control, and unmodified SN-22, diluted in cell culture medium from a DMSO stock, was used as a positive control.
Cell growth curves of NB cells treated with co-drug loaded nanoparticles at doses corresponding to 5 ng SN-22 per well (96-well plates) for 24 hours are shown in comparison to “no treatment”, drug-free nanoparticles and free SN-22 (upper panel). Cell growth inhibition (%) determined 6 days post-treatment is shown for co-drug loaded and drug-free (control) nanoparticles as a function of dose and exposure duration (lower panel).

A short description of series [2]: Acid strength (pKa) of the ester-forming acid of model compounds. The following applies: pKa of the acid forming the ester bond. Format: physicochemical. An excerpt:
Table 1 illustrates the effect of acid strength on rate of hydrolytic cleavage for several model compounds.

Series [3] can be described thus: Release studies of co-drug loaded nanoparticles, external sink method. Format: physicochemical. Particulars: sink conditions, 37° C., acceptor medium heptane/methyl tert-butyl ether 1:1 v/v. The protocol: Release samples were also analyzed by TLC (right panel). […] (lane 3 vs. 2). Free SN-22 is included in lane 1.

With `CCc1c2c(nc3ccccc13)-c1cc3c(c(=O)n1C2)COC(=O)[C@]3(O)CC` [SN-22, 7-ethylcamptothecin], in series [1], the “Cell growth / proliferation inhibition” value was “fully inhibited cell growth”.
On to `CCOC(=O)C(=O)NC` [CH3NHCOCOEt], for which the “Acid pKa” value in series [2] was 1.8.
Same read-out and setting: next, `CCOC(=O)COC` [CH3OCH2COOEt]: 3.6.
Still for that read-out and setting: the figure for `CCOC(=O)COC(C)=O` [CH3COOCH2COOEt] is 2.7.
For the compound “SN-22 ester of tocopheryl oxyacetic acid [SN22-TOAc]”, the “Release rate from nanoparticles” value in series [3] is reported as “more stable retention”.
Take `CCOC(C)=O` [CH3COOEt]: the “Acid pKa” value in series [2] was found to be 4.7.
